Consider eleven compounds from ChEMBL document CHEMBL1201862, “PubChem BioAssay data set” (2004).

SMILES strings stand for the structures.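 Where inhibition never reached the appropriate level, the endpoint shown equals the highest concentration tested. Otherwise, values were interpolated linearly from a five-concentration, 48-hour dose response in 96-well plates. At the GI50, growth is halved.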 The source made the active and inactive calls. Rule as the data show it: active = GI50 up to about 1.1 µM and inactive = higher.

Holding throughout (assay): NCI tumour cell line growth inhibition, 48 h
Experiment [1] concerns ACHN.
Experiment [2] relates to CAKI-1.
Experiment [3] relates to EKVX.
For experiment [4], the system named is HL-60.
Experiment [5] relates to HT-29.
Experiment [6] has as its system K562.
For experiment [7], the system named is MDA-MB-231.
For experiment [8], the system named is MDA-N.
The subject of experiment [9] is Malme-3M.
The test system of experiment [10] is NCI-H23.
Experiment [11] concerns NCI-H522.
The subject of experiment [12] is NCI/ADR-RES.
The test system of experiment [13] is OVCAR-3.
Experiment [14] deals with OVCAR-4.
Experiment [15] concerns RXF 393.
In experiment [16] the test system is SF-268.
Experiment [17] has as its system SF-539.
Experiment [18] relates to UACC-257.
For experiment [19], the system named is UACC-62.
Experiment [20] concerns NCI-H226.

Consider `CN(CCNC(=O)c1nn(-c2ccccc2)c2c1Cc1ccccc1-2)CCNC(=O)c1nn(-c2ccccc2)c2c1Cc1ccccc1-2`, for which the GI50 in [1] is 1.74 µM (inactive); in experiment [2] it was 2.53 µM (inactive); in experiment [3] it was 4.44 µM (inactive); in [4], 1.32 µM (inactive); in experiment [5], 1.85 µM (inactive); in experiment [6], 2.11 µM (inactive). Besides, the GI50 was 1.82 µM (inactive) in experiment [7]; 1.73 µM (inactive) in experiment [8]; 1.82 µM (inactive) in [9]; 1.87 µM (inactive) in experiment [10]; 1.57 µM (inactive) in experiment [11]; 2.17 µM (inactive) in experiment [12]. Also, the GI50 in experiment [13] was 1.68 µM (inactive); in experiment [14], 1.82 µM (inactive); in experiment [15] it was 1.57 µM (inactive); in experiment [16], 2.02 µM (inactive); in experiment [17], 2.17 µM (inactive); in experiment [18] it was 1.79 µM (inactive). Moreover, in [19], the GI50 was 1.71 µM (inactive).

As for `COC(=O)C(Cc1ccccc1)NS(=O)(=O)c1ccc(-c2c3nc(c(-c4ccc(S(=O)(=O)NC(Cc5ccccc5)C(=O)OC)cc4)c4ccc([nH]4)c(-c4ccc(S(=O)(=O)NC(Cc5ccccc5)C(=O)OC)cc4)c4nc(c(-c5ccc(S(=O)(=O)NC(Cc6ccccc6)C(=O)OC)cc5)c5ccc2[nH]5)C=C4)C=C3)cc1` (stereo not drawn), the GI50 in [1], in experiment [2], in experiment [3], in experiment [4], in [5] and in experiment [6] was > 100 µM (inactive) each time. Further, the GI50 in experiment [7], in experiment [8], in experiment [9], in [10], in [11] and in experiment [12] was > 100 µM (inactive) in each case. Besides, the GI50 was > 100 µM (inactive) in experiment [13]; > 100 µM (inactive) in [14]; 39.4 µM (inactive) in [15]; > 100 µM (inactive) in [16]; > 100 µM (inactive) in [17]; > 100 µM (inactive) in [18]. In addition, the GI50 in [19] was > 100 µM (inactive).

For `COc1ccc(-c2nc3c(C(=O)NCCN(C)C)cccc3c3ccccc23)cc1`, the GI50 in [1] is 3.25 µM (inactive); in experiment [2], 1.71 µM (inactive); in [3] it was 6.78 µM (inactive); in experiment [4], 2.07 µM (inactive); in [5] it was 2.51 µM (inactive); in [6], 2.06 µM (inactive). For the same compound, the GI50 in experiment [7] is 3.45 µM (inactive); in experiment [8], 2.26 µM (inactive); in experiment [9], 4.3 µM (inactive); in [20] it was 5.57 µM (inactive); in experiment [10], 6.07 µM (inactive); in experiment [11], 2.65 µM (inactive). For the same compound, the GI50 in experiment [12] is 7.31 µM (inactive); in experiment [13] it was 4.57 µM (inactive); in [14], 2.81 µM (inactive); in experiment [16] it was 8.53 µM (inactive); in experiment [17], 2.21 µM (inactive); in experiment [18], 1.89 µM (inactive). In addition, in experiment [19], the GI50 was 1.83 µM (inactive).

On to `Cc1ccc(C)c2c1C/C(=C\c1ccccc1C(=O)O)C2=O`, for which the GI50 in [1] is > 100 µM (inactive); in [2], > 100 µM (inactive); in experiment [3], 45.7 µM (inactive); in [4], 40.9 µM (inactive); in experiment [5], > 100 µM (inactive); in [6], 87.7 µM (inactive). Moreover, the GI50 was 87.3 µM (inactive) in [8]; > 100 µM (inactive) in [9]; 20.8 µM (inactive) in experiment [20]; > 100 µM (inactive) in experiment [10]; > 100 µM (inactive) in [11]; > 100 µM (inactive) in [12]. Moreover, the GI50 in experiment [13] is 54.2 µM (inactive); in experiment [14] it was 62.7 µM (inactive); in experiment [15], > 100 µM (inactive); in [16], 89.3 µM (inactive); in [17], 18.5 µM (inactive); in [18] it was > 100 µM (inactive). Moreover, the GI50 in experiment [19] was > 100 µM (inactive).

In the case of `O=C1CC(CC(O)C(O)CO)CC(=O)N1` (stereo not drawn), the GI50 in [1], in experiment [2], in experiment [3], in experiment [4], in [5] and in experiment [6] was > 100 µM (inactive) each time. The GI50 in [7], in experiment [8], in experiment [9], in experiment [20], in experiment [10] and in experiment [11] was > 100 µM (inactive) in each case. For the same compound, the GI50 in [12], in [13], in [16], in experiment [17] and in [18] was > 100 µM (inactive) each time.

On to `O=C1/C(=C\c2ccccc2)CN(C(=O)CCN2CCCCC2)C/C1=C/c1ccccc1`, for which the GI50 is 1.95 µM (inactive) in experiment [1]; 1.71 µM (inactive) in experiment [2]; 3.71 µM (inactive) in [3]; 0.313 µM (active) in experiment [4]; 0.443 µM (active) in [5]; 0.179 µM (active) in experiment [6]. Also, the GI50 is 1.48 µM (inactive) in experiment [7]; 1.19 µM (inactive) in experiment [8]; 2.25 µM (inactive) in experiment [9]; 6.11 µM (inactive) in [20]; 1.89 µM (inactive) in experiment [10]; 0.757 µM (active) in experiment [11]. For the same compound, the GI50 in experiment [13] was 2.28 µM (inactive); in experiment [14], 1.73 µM (inactive); in experiment [15] it was 1.95 µM (inactive); in [16], 1.78 µM (inactive); in [17], 3.25 µM (inactive); in [18], 1.76 µM (inactive). Also, the GI50 in [19] is 1.43 µM (inactive).

Take `CSc1cc(Br)ccc1-n1c(C(=O)c2ccccc2)c(SC)n(-c2ccccc2)c1=O`: the GI50 in [1] was > 100 µM (inactive); in experiment [2], > 100 µM (inactive); in experiment [3] it was > 100 µM (inactive); in [5], 52.8 µM (inactive); in [6] it was 4.81 µM (inactive); in experiment [7] it was 39.8 µM (inactive). Also, the GI50 in experiment [8] was 18.5 µM (inactive); in [20] it was > 100 µM (inactive); in experiment [10], 86.3 µM (inactive); in experiment [11], 54.6 µM (inactive); in [12], 53.8 µM (inactive); in experiment [13] it was > 100 µM (inactive). Further, the GI50 in experiment [14], in experiment [16], in experiment [17], in experiment [18] and in experiment [19] was > 100 µM (inactive) each time.

Consider `CN(C)c1ccc(/C=C/c2ccnc3ccccc23)cc1`, for which the GI50 was 40.3 µM (inactive) in [1]; > 100 µM (inactive) in experiment [2]; 49 µM (inactive) in [3]; 31.6 µM (inactive) in [4]; 25.3 µM (inactive) in experiment [5]; 33.5 µM (inactive) in [6]. In addition, the GI50 in experiment [7] is 23.3 µM (inactive); in experiment [8] it was 17.7 µM (inactive); in experiment [9], 53.2 µM (inactive); in experiment [10], 39.4 µM (inactive); in experiment [12] it was 64.3 µM (inactive); in experiment [13] it was > 100 µM (inactive). Also, the GI50 in experiment [14] was 55.6 µM (inactive); in [15], 54.3 µM (inactive); in experiment [16] it was > 100 µM (inactive); in experiment [17], > 100 µM (inactive); in experiment [18] it was > 100 µM (inactive); in [19], 43.1 µM (inactive).

Regarding `CC(=O)OC1c2ccccc2CC2(OC(C)=O)c3ccccc3C12` (stereo not drawn), the GI50 in experiment [1] was > 100 µM (inactive); in [2] it was > 100 µM (inactive); in [3], > 100 µM (inactive); in experiment [4], > 10 µM (inactive); in experiment [5], > 100 µM (inactive); in experiment [6], > 100 µM (inactive). For the same compound, the GI50 in [7], in [8], in experiment [9], in [20], in experiment [10] and in experiment [12] was > 100 µM (inactive) in each case. In addition, the GI50 in experiment [13], in [14], in [15], in experiment [16], in experiment [17] and in experiment [18] was > 100 µM (inactive) in each case. The GI50 in experiment [19] was > 100 µM (inactive).

On to `COC(=O)c1sc(=S)sc1SCc1cccc(CSc2sc(=S)sc2C(=O)OC)c1`, for which the GI50 in experiment [1] is 28.8 µM (inactive); in experiment [2], 34.5 µM (inactive); in experiment [3], 56 µM (inactive); in experiment [5], > 100 µM (inactive); in experiment [6], 79.8 µM (inactive); in experiment [7], 36.6 µM (inactive). For the same compound, the GI50 in experiment [8] is > 100 µM (inactive); in experiment [9], > 100 µM (inactive); in [10] it was 27.9 µM (inactive); in experiment [11], > 100 µM (inactive); in [12], > 100 µM (inactive); in experiment [13] it was 63.4 µM (inactive). For the same compound, the GI50 in experiment [14] is > 100 µM (inactive); in experiment [15] it was 16.2 µM (inactive); in [16] it was 44.5 µM (inactive); in experiment [17], 24.6 µM (inactive); in experiment [18], > 100 µM (inactive); in [19], 22.9 µM (inactive).

On to `O=C1c2cccc(NCCCNCCO)c2C(=O)c2cccc(NCCCNCCO)c21`, for which the GI50 was 2.08 µM (inactive) in [1]; 2.94 µM (inactive) in experiment [3]; 1.27 µM (inactive) in experiment [4]; 2.02 µM (inactive) in experiment [5]; 1.42 µM (inactive) in experiment [7]; 1.71 µM (inactive) in experiment [8]. Moreover, the GI50 was 1.81 µM (inactive) in [10]; 0.373 µM (active) in [11]; 13.7 µM (inactive) in [12]; 3.05 µM (inactive) in experiment [13]; 2.13 µM (inactive) in [15]; 1.49 µM (inactive) in [17]. Besides, the results for the GI50 in [18] and in [19] were 6.08 µM (inactive) and 2.01 µM (inactive), respectively.
